# Test results reported in patent US11877574B2, “Herbicidal oil dispersion and method” (Arysta LifeScience Inc., priority 2018, dated 2024).
# Tests used:
# [1] = Active ingredient assay on storage, SCB239-12 (Table 3); assay type: physicochemical
# [2] = Active ingredient assay and recovery on storage (Table 2); assay type: physicochemical
compound,measurement,setting,value
"CCCCCCCC(=O)Oc1c(Br)cc(C#N)cc1Br [Bromoxynil, Bromoxynil Octanoate]",Assay (% w/w),"[1]; 1 month storage, 0° C.",31.08 % w/w
same,Recovery of active ingredient (% of initial assay),"[1]; 1 month storage, 0° C.",99.56 % w/w
same,Assay (% w/w),"[1]; 1 month storage, 40° C.",30.65 % w/w
same,Recovery of active ingredient (% of initial assay),"[1]; 1 month storage, 40° C.",98.17 % w/w
same,Assay (% w/w),"[1]; 1 month storage, T/C",30.89 % w/w
same,Recovery of active ingredient (% of initial assay),"[1]; 1 month storage, T/C",98.95 % w/w
same,Assay (% w/w),"[1]; 2 month storage, 0° C.",30.30 % w/w
same,Recovery of active ingredient (% of initial assay),"[1]; 2 month storage, 0° C.",97.06 % w/w
same,Assay (% w/w),"[1]; 2 month storage, 40° C.",29.43 % w/w
same,Recovery of active ingredient (% of initial assay),"[1]; 2 month storage, 40° C.",94.28 % w/w
same,Assay (% w/w),"[1]; 2 month storage, T/C",29.88 % w/w
same,Recovery of active ingredient (% of initial assay),"[1]; 2 month storage, T/C",95.73 % w/w
same,Assay (% w/w),"[1]; 2 wks, 54° C.",30.55 % w/w
same,Recovery of active ingredient (% of initial assay),"[1]; 2 wks, 54° C.",97.86 % w/w
same,Assay (% w/w),"[1]; 3 month storage, 0° C.",30.06 % w/w
same,Recovery of active ingredient (% of initial assay),"[1]; 3 month storage, 0° C.",96.31 % w/w
same,Assay (% w/w),"[1]; 3 month storage, 25° C.",30.03 % w/w
same,Recovery of active ingredient (% of initial assay),"[1]; 3 month storage, 25° C.",96.21 % w/w
same,Assay (% w/w),"[1]; 3 month storage, 40° C.",29.37 % w/w
same,Recovery of active ingredient (% of initial assay),"[1]; 3 month storage, 40° C.",94.07 % w/w
same,Assay (% w/w),"[1]; 3 month storage, −10° C.",30.49 % w/w
same,Recovery of active ingredient (% of initial assay),"[1]; 3 month storage, −10° C.",97.68 % w/w
same,Assay (% w/w),[1]; F/T sample,31.13 % w/w
same,Recovery of active ingredient (% of initial assay),[1]; F/T sample,99.73 % w/w
same,Assay (% w/w),[1]; Initial,31.22 % w/w
same,Assay (% w/w),"[2]; 1 month storage, 0° C.",31.04 % w/w
same,Assay (% w/w),"[2]; 1 month storage, 40° C.",31.46 % w/w
same,Assay (% w/w),"[2]; 1 month storage, T/C",31.27 % w/w
same,Assay (% w/w),"[2]; 1 month storage, −10° C.",31.44 % w/w
same,Assay (% w/w),"[2]; 2 month storage, 0° C.",31.30 % w/w
same,Assay (% w/w),"[2]; 2 month storage, 40° C.",30.78 % w/w
same,Assay (% w/w),"[2]; 2 month storage, T/C",30.99 % w/w
same,Assay (% w/w),"[2]; 2 month storage, −10° C.",31.34 % w/w
same,Assay (% w/w),"[2]; 2 wks, 54° C.",31.02 % w/w
same,Assay (% w/w),"[2]; 3 month storage, 0° C.",32.81 % w/w
same,Assay (% w/w),"[2]; 3 month storage, 25° C.",32.57 % w/w
same,Assay (% w/w),"[2]; 3 month storage, 40° C.",32.17 % w/w
same,Assay (% w/w),"[2]; 3 month storage, T/C",32.54 % w/w
same,Assay (% w/w),"[2]; 3 month storage, −10° C.",33.06 % w/w
same,Assay (% w/w),"[2]; 6 month storage, 25° C.",31.38 % w/w
same,Assay (% w/w),"[2]; 9 month storage, 25° C.",32.11 % w/w
same,Assay (% w/w),"[2]; 12 month storage, 25° C.",31.19 % w/w
same,Assay (% w/w),[2]; F/T Sample,31.42 % w/w
same,Assay (% w/w),[2]; initial,31.32 % w/w
"COc1nn(C(=O)[N-]S(=O)(=O)c2ccccc2OC(F)(F)F)c(=O)n1C.[Na+] [Flucarbazone, Flucarbazone Sodium]",Assay (% w/w),"[1]; 1 month storage, 0° C.",1.81 % w/w
same,Recovery of active ingredient (% of initial assay),"[1]; 1 month storage, 0° C.",99.67 % w/w
same,Assay (% w/w),"[1]; 1 month storage, 40° C.",1.85 % w/w
same,Recovery of active ingredient (% of initial assay),"[1]; 1 month storage, 40° C.",101.98 % w/w
same,Assay (% w/w),"[1]; 1 month storage, T/C",1.83 % w/w
same,Recovery of active ingredient (% of initial assay),"[1]; 1 month storage, T/C",101.13 % w/w
same,Assay (% w/w),"[1]; 2 month storage, 0° C.",′1.81 % w/w
same,Recovery of active ingredient (% of initial assay),"[1]; 2 month storage, 0° C.",99.76 % w/w
same,Assay (% w/w),"[1]; 2 month storage, 40° C.",1.80 % w/w
same,Recovery of active ingredient (% of initial assay),"[1]; 2 month storage, 40° C.",99.54 % w/w
same,Assay (% w/w),"[1]; 2 month storage, T/C",1.82 % w/w
same,Recovery of active ingredient (% of initial assay),"[1]; 2 month storage, T/C",100.35 % w/w
same,Assay (% w/w),"[1]; 2 wks, 54° C.",1.68 % w/w
same,Recovery of active ingredient (% of initial assay),"[1]; 2 wks, 54° C.",92.84 % w/w
same,Assay (% w/w),"[1]; 3 month storage, 0° C.",1.80 % w/w
same,Recovery of active ingredient (% of initial assay),"[1]; 3 month storage, 0° C.",99.13 % w/w
same,Assay (% w/w),"[1]; 3 month storage, 25° C.",1.79 % w/w
same,Recovery of active ingredient (% of initial assay),"[1]; 3 month storage, 25° C.",98.51 % w/w
same,Assay (% w/w),"[1]; 3 month storage, 40° C.",1.72 % w/w
same,Recovery of active ingredient (% of initial assay),"[1]; 3 month storage, 40° C.",95.13 % w/w
same,Assay (% w/w),"[1]; 3 month storage, −10° C.",1.78 % w/w
same,Recovery of active ingredient (% of initial assay),"[1]; 3 month storage, −10° C.",98.44 % w/w
same,Assay (% w/w),[1]; F/T sample,1.80 % w/w
same,Recovery of active ingredient (% of initial assay),[1]; F/T sample,99.26 % w/w
same,Assay (% w/w),[1]; Initial,1.81 % w/w
same,Assay (% w/w),"[2]; 1 month storage, 0° C.",1.89 % w/w
same,Assay (% w/w),"[2]; 1 month storage, 40° C.",1.90 % w/w
same,Assay (% w/w),"[2]; 1 month storage, T/C",1.90 % w/w
same,Assay (% w/w),"[2]; 1 month storage, −10° C.",1.90 % w/w
same,Assay (% w/w),"[2]; 2 month storage, 0° C.",1.93 % w/w
same,Assay (% w/w),"[2]; 2 month storage, 40° C.",1.91 % w/w
same,Assay (% w/w),"[2]; 2 month storage, T/C",1.93 % w/w
same,Assay (% w/w),"[2]; 2 month storage, −10° C.",1.93 % w/w
same,Assay (% w/w),"[2]; 2 wks, 54° C.",1.90 % w/w
same,Assay (% w/w),"[2]; 3 month storage, 0° C.",1.98 % w/w
same,Assay (% w/w),"[2]; 3 month storage, 25° C.",1.99 % w/w
same,Assay (% w/w),"[2]; 3 month storage, 40° C.",1.94 % w/w
same,Assay (% w/w),"[2]; 3 month storage, T/C",1.98 % w/w
same,Assay (% w/w),"[2]; 3 month storage, −10° C.",1.99 % w/w
same,Assay (% w/w),"[2]; 6 month storage, 25° C.",1.92 % w/w
same,Assay (% w/w),"[2]; 9 month storage, 25° C.",1.92 % w/w
same,Assay (% w/w),"[2]; 12 month storage, 25° C.",1.92 % w/w
same,Assay (% w/w),[2]; F/T Sample,1.92 % w/w
same,Assay (% w/w),[2]; initial,1.91 % w/w
